Experimental data as given in the supplement of paper PMC10733146.

Legend:
Assay in all cases: viability relative to DMSO control (fraction); higher = less drug effect (more viable cells)
[1] = tested on: primary AML patient cells (S079); conditions: 48 h
Method in brief: (§1)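 Viability was measured as CellTiter-Glo luminescence relative to the median of 16 inner DMSO wells. Primary mononuclear tumour cells, fresh or cryopreserved, were Ficoll-isolated from blood or bone marrow or taken from processed lymph node. They were seeded at 4 × 10^4 cells per well into 384-well plates holding pre-plated compounds at five concentrations, one well each, and kept in RPMI-1640 with penicillin/streptomycin, L-glutamine and human serum at 37 °C and 5% CO2 for 48 h.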

[2] = tested on: primary DLBCL patient cells (S082); conditions: 48 h
Method in brief: as §1

[3] = tested on: primary AML patient cells (S081); conditions: 1 µM; 48 h
Method in brief: as §1

[4] = tested on: primary BL patient cells (S005); conditions: 48 h
Method in brief: as §1

[5] = tested on: primary AML patient cells (S011); conditions: 0.2 µM; 48 h
Method in brief: as §1

[6] = tested on: primary FL patient cells (S022); conditions: 48 h
Method in brief: as §1

[7] = tested on: primary AML patient cells (S037); conditions: 48 h
Method in brief: as §1

[8] = tested on: primary AML patient cells (S044); conditions: 1 µM; 48 h
Method in brief: as §1

[9] = tested on: primary AML patient cells (S006); conditions: 0.04 µM; 48 h
Method in brief: as §1

[10] = tested on: primary MCL patient cells (S041); conditions: 48 h
Method in brief: as §1

[11] = tested on: primary T-NHL patient cells (S058); conditions: 0.0016 µM; 48 h
Method in brief: as §1

[12] = tested on: primary DLBCL patient cells (S076); conditions: 0.2 µM; 48 h
Method in brief: as §1

[13] = tested on: primary MCL patient cells (S063); conditions: 48 h
Method in brief: as §1

[14] = tested on: primary MCL patient cells (S068); conditions: 48 h
Method in brief: as §1

[15] = tested on: primary AML patient cells (S002); conditions: 0.04 µM; 48 h
Method in brief: as §1

[16] = tested on: primary AML patient cells (S071); conditions: 1 µM; 48 h
Method in brief: as §1

[17] = tested on: primary AML patient cells (S056); conditions: 0.008 µM; 48 h
Method in brief: as §1

[18] = tested on: primary MCL patient cells (S053); conditions: 48 h
Method in brief: as §1

[19] = tested on: primary AML patient cells (S019); conditions: 1 µM; 48 h
Method in brief: as §1

[20] = tested on: primary AML patient cells (S017); conditions: 0.04 µM; 48 h
Method in brief: as §1

[21] = tested on: primary B-PLL patient cells (S016); conditions: 48 h
Method in brief: as §1

[22] = tested on: primary AML patient cells (S021); conditions: 48 h
Method in brief: as §1

[23] = tested on: primary AML patient cells (S089); conditions: 48 h
Method in brief: as §1

[24] = tested on: primary ALL patient cells (S048); conditions: 0.008 µM; 48 h
Method in brief: as §1

[25] = tested on: primary AML patient cells (S009); conditions: 0.0016 µM; 48 h
Method in brief: as §1

[26] = tested on: primary AML patient cells (S007); conditions: 1 µM; 48 h
Method in brief: as §1

[27] = tested on: primary AML patient cells (S072); conditions: 48 h
Method in brief: as §1

[28] = tested on: primary DLBCL patient cells (S049); conditions: 48 h
Method in brief: as §1

[29] = tested on: primary AML patient cells (S012); conditions: 48 h
Method in brief: as §1

[30] = tested on: primary AML patient cells (S055); conditions: 0.008 µM; 48 h
Method in brief: as §1

For C=CC(=O)N1CCC[C@@H](n2nc(-c3ccc(Oc4ccccc4)cc3)c3c(N)ncnc32)C1 [Ibrutinib], the viability ([1]; 0.04 µM) was 0.879, the viability ([1]; 0.2 µM) was 0.862 and the viability ([1]; 1 µM) was 1.25. It also gave a viability ([2]; 0.0016 µM) of 0.711, a viability ([2]; 0.008 µM) of 0.583 and a viability ([2]; 0.04 µM) of 0.465. It also gave a viability ([2]; 0.2 µM) of 0.458, a viability ([2]; 1 µM) of 0.477 and a viability [3] of 1.14. It also gave a viability ([4]; 0.0016 µM) of 1.1, a viability ([4]; 0.008 µM) of 0.982 and a viability ([4]; 0.2 µM) of 0.978. The viability [5] was 0.972, the viability ([6]; 0.2 µM) was 0.978 and the viability ([6]; 1 µM) was 0.978. For the same compound, the viability ([7]; 0.0016 µM) was 1.4, the viability ([7]; 0.04 µM) was 1.5 and the viability ([7]; 1 µM) was 1.75. It also gave a viability [8] of 0.777, a viability [9] of 0.988 and a viability ([10]; 0.0016 µM) of 0.874. It also gave a viability ([10]; 0.008 µM) of 0.802, a viability [11] of 1.12 and a viability [12] of 0.89. It also gave a viability ([13]; 0.0016 µM) of 0.475, a viability ([13]; 0.008 µM) of 0.292 and a viability ([13]; 0.04 µM) of 0.253. The viability ([13]; 0.2 µM) was 0.255, the viability ([13]; 1 µM) was 0.262 and the viability ([14]; 0.0016 µM) was 0.77. It also gave a viability ([14]; 0.008 µM) of 0.697, a viability ([14]; 0.2 µM) of 0.687 and a viability ([14]; 1 µM) of 0.783. The viability [15] was 1.18, the viability [16] was 0.673 and the viability [17] was 1.1. The viability ([18]; 0.0016 µM) was 0.591, the viability ([18]; 0.008 µM) was 0.57 and the viability ([18]; 0.04 µM) was 0.595. The viability ([18]; 0.2 µM) was 0.588, the viability ([18]; 1 µM) was 0.601 and the viability [19] was 1. It also gave a viability [20] of 1.1, a viability ([21]; 0.0016 µM) of 0.576 and a viability ([21]; 0.008 µM) of 0.507. For the same compound, the viability ([21]; 0.04 µM) was 0.517, the viability ([21]; 0.2 µM) was 0.508 and the viability ([21]; 1 µM) was 0.547. The viability ([22]; 0.04 µM) was 1, the viability ([22]; 1 µM) was 0.913 and the viability ([23]; 0.008 µM) was 0.988. It also gave a viability ([23]; 0.04 µM) of 1, a viability ([23]; 0.2 µM) of 0.615 and a viability ([23]; 1 µM) of 0.6. The viability [24] was 1.12, the viability [25] was 0.965 and the viability [26] was 0.338. The viability ([27]; 0.0016 µM) was 1.2, the viability ([27]; 0.04 µM) was 0.913 and the viability ([28]; 0.0016 µM) was 0.848. For the same compound, the viability ([28]; 0.04 µM) was 0.729, the viability ([28]; 0.2 µM) was 0.687 and the viability ([28]; 1 µM) was 0.686. For the same compound, the viability ([29]; 0.0016 µM) was 1.1, the viability ([29]; 0.008 µM) was 1.09 and the viability [30] was 0.949.
